In assay [1] the test system is L6 myotubes. Nature of the assay: Glucose uptake (2-deoxy-D-[3H]glucose) screening assay in cultured L6 myotubes. Format: cell-based, rat. The note with it: for Glucose Uptake (fold activity to control), Insulin (−) / Glucose Uptake (fold activity to control), Insulin (+): synthetic peptides 1 ng/mL (each), mean ± SEM; for Concentration at which inhibition of glucose uptake was exhibited / Concentration at which stimulation of glucose uptake was exhibited: L6 myotubes; for Bioactivity: Table 4, identified peptides. The procedure: Screening assays were performed as follows. L6 rat myoblasts (courtesy of Dr. Amira Klip, Hospital for Sick Children, Toronto, Canada) were grown and maintained in monolayer culture in alpha-MEM containing 2% (v/v) fetal bovine serum in an atmosphere of 5% CO2 at 37° C. L6 myoblasts were plated in 12-well or 24-well plates at 20,000 cells/mL, replacing the media every two days until complete differentiation into myotubes (7 days post-plating).
Once completely differentiated, myotubes were serum deprived (alpha-MEM with 0% FBS) for 3 h and treated or not with SPF (1 ng/ml or 1 μg/mL) for 2 h without (insulin-independent) or with 100 nM insulin (insulin-dependent) during the last 45 min. Cells were rinsed once with glucose-free HEPES-buffered saline solution pH 7.4 (140 mM NaCl, 20 mM HEPES/Na, 5 mM KCl, 2.5 mM MgSO4 and 1 mM CaCl2)), and were subsequently incubated for 8 min with 10 µM 2-deoxy-D-glucose containing 0.3 μCi/mL 2-deoxy-D-[3H]glucose in the same buffer. After incubation in transport medium, cells were rinsed three times with ice-cold saline solution (0.9% NaCl) and stored at −20° C. Cells were disrupted by adding 1 mL of 50 mM NaOH to plates with agitation for 15 min. Cell-incorporated radioactivity was measured using a Perkin Elmer Tricarb liquid scintillation counter. Protein concentrations were determined by the micro bicinchoninic acid method (BCA) using a bovine serum albumin (BSA) standard curve (ThermoScientific, Waltham, Mass, USA), and the results expressed in pM/min/mg protein, calculated using the following equation: […]
where DPM (sample) is the number of disintegrations per minute (DPM) measured for the tested sample, C is the concentration of protein (mg), DPM (2DG) is the number of DPM measure for the solution of radioactive 2-deoxy-D-[3H] glucose for 1 pmol and equal to 72.2025 dpm/pmol, and t is the incubation time with 2-deoxy-D-[3H] glucose, and reported in terms of relative activity to the control sample in the absence of insulin. Statistical analysis was performed in Microsoft Excel using a two-tailed Student's t-test assuming equal variance.

Assay [2] has as its system L6 myotubes. The description is as above. Format: cell-based, rat. The note with it: for Glucose Uptake (fold activity to control), Insulin (−) / Glucose Uptake (fold activity to control), Insulin (+): synthetic peptides 1 pg/mL (each), mean ± SEM.
[3] abbreviates: 1 ng/mL, insulin state not distinguished (presence or absence).
The mark [4] stands for this setting: 1 pg/mL, insulin state not distinguished.

On to Ile-Ala-Ile, for which, in assay [1] (setting [3]), the “Effect on glucose uptake (in words)” value is listed as “No significant effect”. Besides, in assay [1] (absence of insulin), the “Glucose Uptake (fold activity to control), Insulin (−)” value is reported as 1.04 ± 0.04 fold activity to control. In addition, the “Glucose Uptake (fold activity to control), Insulin (+)” value in assay [1] (presence of insulin) was 1.80 ± 0.09 fold activity to control.

On to “Ile-Ala-Tyr (IAY) [chemically synthesized tripeptide, Ile-X-Tyr motif]”, for which the “Effect on glucose uptake (in words)” value in assay [2] (1 pg/mL (each peptide), absence of insulin) is on record as “inhibited glucose uptake”; in assay [2] (setting [4]), “inhibiting effect”; in assay [2] (1 pg/mL, presence of insulin) it was “inhibited glucose uptake”; in assay [1] (1 ng/mL (each peptide), absence of insulin) it was “stimulated glucose uptake”; in assay [1] (setting [3]), “stimulating effect”; in assay [1] (1 ng/mL, presence of insulin), “stimulated glucose uptake”. Besides, the “Glucose Uptake (fold activity to control), Insulin (−)” value is recorded as 0.86 ± 0.04 fold activity to control in assay [2] (absence of insulin) and 1.13 ± 0.05 fold activity to control in assay [1] (absence of insulin). Moreover, the “Glucose Uptake (fold activity to control), Insulin (+)” value in assay [2] (presence of insulin) was 1.55 ± 0.04 fold activity to control; in assay [1] (presence of insulin) it was 1.97 ± 0.08 fold activity to control. Moreover, in assay [1], the “Concentration at which inhibition of glucose uptake was exhibited” value was determined as 2.7 pM. Moreover, in assay [1], the “Concentration at which stimulation of glucose uptake was exhibited” value amounted to 2.7 nM. Besides, the Bioactivity entry in assay [1] was “Modulates glucose uptake”.

As for Ile-Gly-Ile, the “Effect on glucose uptake (in words)” value in assay [1] (setting [3]) was “No significant effect”. The “Glucose Uptake (fold activity to control), Insulin (−)” value in assay [1] (absence of insulin) was 1.04 ± 0.04 fold activity to control. In assay [1] (presence of insulin), the “Glucose Uptake (fold activity to control), Insulin (+)” value was 1.75 ± 0.17 fold activity to control.

As for “Ile-Gly-Tyr (IGY) [chemically synthesized tripeptide, Ile-X-Tyr motif]”, the “Effect on glucose uptake (in words)” value in assay [2] (setting [4]) is on record as “inhibiting effect”; in assay [2] (1 pg/mL, presence of insulin), “inhibited glucose uptake”; in assay [1] (setting [3]), “stimulating effect”; in assay [1] (1 ng/mL, presence of insulin) it was “stimulated glucose uptake”. The “Glucose Uptake (fold activity to control), Insulin (−)” value in assay [2] (absence of insulin) was 0.98 ± 0.06 fold activity to control; in assay [1] (absence of insulin) it was 1.05 ± 0.06 fold activity to control. Besides, the “Glucose Uptake (fold activity to control), Insulin (+)” value is reported as 1.49 ± 0.10 fold activity to control in assay [2] (presence of insulin) and 2.02 ± 0.05 fold activity to control in assay [1] (presence of insulin). For the same substance, the “Concentration at which inhibition of glucose uptake was exhibited” value in assay [1] is reported as 2.8 pM. Besides, the “Concentration at which stimulation of glucose uptake was exhibited” value in assay [1] amounted to 2.8 nM. The Bioactivity entry in assay [1] was “Modulates glucose uptake”.

Consider Ile-Ile-Ile, for which, in assay [1] (setting [3]), the “Effect on glucose uptake (in words)” value is “No significant effect”. In addition, the “Glucose Uptake (fold activity to control), Insulin (−)” value in assay [1] (absence of insulin) is on record as 1.00 ± 0.04 fold activity to control. Also, in assay [1] (presence of insulin), the “Glucose Uptake (fold activity to control), Insulin (+)” value is listed as 2.02 ± 0.27 fold activity to control.

Turning to Ile-Ile-Tyr, the “Glucose Uptake (fold activity to control), Insulin (−)” value is on record as 0.97 ± 0.04 fold activity to control in assay [2] (absence of insulin) and 1.06 ± 0.03 fold activity to control in assay [1] (absence of insulin). Also, the “Glucose Uptake (fold activity to control), Insulin (+)” value in assay [2] (presence of insulin) is 1.61 ± 0.07 fold activity to control; in assay [1] (presence of insulin), 1.88 ± 0.11 fold activity to control. Further, the “Effect on glucose uptake (in words)” value in assay [1] (setting [3]) is “did not significantly affect”.

(Values after patent US20240300999A1, “PEPTIDES FOR REGULATING GLUCOSE” (priority 2021, published 2024).)
